Measurements published in patent publication US20250282827A1, “LIPIDATED POLYMYXIN ANALOGUES” (priority 2021, published 2025).
Values after ≈ are worked out from the molar mass of the structure shown. Positions of bridges follow the written chain, without caps; N, C: chain ends. Non-standard residues stand in square brackets, D forms with d. Residues, ends and D or L forms follow the SMILES beside them. *: point of attachment. Ethyl(2-propionyloxy) = CCC(=O)OCC*; Ethyl(2-OPiv) = CC(C)(C)C(=O)OCC*; Ethyl(2-OBz) = O=C(OCC*)c1ccccc1; Dab = NCC[C@H](N)C(=O)O; X3 = CCCC(C)C(=O)OCC*

What was measured:
E. coli ATCC 25922 = assay type: cell-based, Escherichia coli; conditions: median of triplicate
From the text: (§1) All 81 compounds prepared in Examples 2 and 3 underwent screening against a panel of Gram-negative bacterium to assess their ability to inhibit bacterial growth. […] The median value is presented.

A. baumannii ATCC 19606 = assay type: cell-based, Acinetobacter baumannii; conditions: median of triplicate
From the text: as §1

P. aeruginosa ATCC 27853 = assay type: cell-based, Pseudomonas aeruginosa; conditions: median of triplicate
From the text: as §1

K. pneumoniae ATCC 33495 = assay type: cell-based, Klebsiella pneumoniae; conditions: median of triplicate
From the text: as §1

[1] = test system: K. pneumoniae ATCC 700603; assay type: cell-based, Klebsiella pneumoniae; conditions: median of triplicate
From the text: as §1

[2] = test system: K. pneumoniae ATCC MS6671; assay type: cell-based, Klebsiella pneumoniae; conditions: median of triplicate
From the text: as §1

E. coli ATCC MS8345 = assay type: cell-based, Escherichia coli; conditions: colistin-resistant strain; median of triplicate
From the text: as §1
Expansion of the polymyxin macrocycle by substituting […]) offered little advantage in antimicrobial activity but was generally well tolerated although for A. baumanni and P. aeruginosa this was detrimental.

[3] = test system: kidney organoids derived from human induced pluripotent stem cells; experiment: Nephrotoxicity on kidney organoids, renal tubule deterioration by bright field imaging; assay type: cell-based; conditions: scored after 48 h; note: key: 1 = unaffected; 2 = mild deterioration; 3 = severe deterioration; 4 = complete deterioration
Method: Selected polymyxin analogues were evaluated for cytotoxicity in physiologically relevant human kidney tissue, using kidney organoids derived from human induced pluripotent stem cells (Soo et al. 2018). Monolipidated analogues 29, 31, 33, containing a propyl, decyl or phenyl lipid, dilapidated compounds, 35, 38, 39, containing a propyl, tert-butyl or phenyl, lipid, respectively and the N-capped, di-lipidated (phenyl) 49 were selected.
The control compound polymyxin B and the seven ClipPA analogues were tested by adding a range of concentrations (based on Gallado-Godoy et al. 2016) to the organoids at day 12 of the protocol, shown previously to correspond to optimal maturity of the organoid tissues.
Toxicity was scored after 48 h for signs of renal tubule deterioration visible by bright field imaging (not shown).

Vero cell line = experiment: Cellular toxicity against Vero cell line; assay type: cell-based; conditions: Vero cell line; for IC50 Vero: ± standard error
Method: (§2) FIG. 6 is a graph showing cell survival as a function of the indicated compound concentration. Data are representative of triplicate experiments.
(§3) To evaluate if the ClipPA modifications introduced any new toxicity, inhibitory concentrations against Vero and HaCaT cell lines were determined. […] The standard error for each measurement is shown.

HaCaT cell line = experiment: Cellular toxicity against HaCaT cell line; assay type: cell-based; conditions: HaCaT cell line; for IC50 HaCaT: ± standard error
Method: as §2, §3

Compound	MIC E. coli ATCC 25922 (E. coli ATCC 25922) [µg/mL]	MIC A. baumannii ATCC 19606 (A. baumannii ATCC 19606) [µg/mL]	MIC P. aeruginosa ATCC 27853 (P. aeruginosa ATCC 27853) [µg/mL]	MIC K. pneumoniae ATCC 33495 (K. pneumoniae ATCC 33495) [µg/mL]	MIC K. pneumoniae ATCC 700603 [1] [µg/mL]	MIC K. pneumoniae ATCC MS6671 [2] [µg/mL]	MIC E. coli ATCC MS8345 (E. coli ATCC MS8345) [µg/mL]	Score (nephrotoxicity on kidney organoids) ([3]; 100 μM)	Score (nephrotoxicity on kidney organoids) ([3]; 300 μM)	Score (nephrotoxicity on kidney organoids) ([3]; 1 mM)	fold more toxic compared to compound 29 (Vero cell line) [fold]	IC50 Vero (Vero cell line) [µg/mL]	fold more toxic compared to compound 29 (HaCaT cell line) [fold]	IC50 HaCaT (HaCaT cell line) [µg/mL]
CC(C)C[C@@H]1NC(=O)[C@@H](Cc2ccccc2)NC(=O)[C@H](CCN)NC(=O)[C@@H](NC(=O)[C@H](CCN)NC(=O)[C@@H](NC(=O)[C@H](CCN)NC(=O)[C@@H](N)CSCCOC(=O)c2ccccc2)[C@@H](C)O)CCNC(=O)[C@H]([C@@H](C)O)NC(=O)[C@H](CCN)NC(=O)[C@H](CCN)NC1=O [Compound 33] (H-C(Ethyl(2-OBz))[Dab]T[Dab][Dab][Dab][dF]L[Dab][Dab]T; lactam 5-C)	0.25 (≈ 0.19 µM)	0.5 (≈ 0.38 µM)	0.5 (≈ 0.38 µM)	0.0625 (≈ 0.0475 µM)	0.25 (≈ 0.19 µM)	>32	2 (≈ 1.52 µM)	1	3	4	–	–	–	–
C[C@@H](O)[C@@H]1NC(=O)[C@H](CCN)NC(=O)[C@H](CCN)NC(=O)[C@H](CSCCOC(=O)c2ccccc2)NC(=O)[C@@H](Cc2ccccc2)NC(=O)[C@H](CCN)NC(=O)[C@@H](NC(=O)[C@H](CCN)NC(=O)[C@@H](NC(=O)[C@H](CCN)NC(=O)[C@@H](N)CSCCOC(=O)c2ccccc2)[C@@H](C)O)CCNC1=O [Compound 39] (H-C(Ethyl(2-OBz))[Dab]T[Dab][Dab][Dab][dF]C(Ethyl(2-OBz))[Dab][Dab]T; lactam 5-C)	0.5 (≈ 0.344 µM)	2 (≈ 1.38 µM)	2 (≈ 1.38 µM)	0.5 (≈ 0.344 µM)	0.5 (≈ 0.344 µM)	>32	4 (≈ 2.75 µM)	1	3	4	~5	521.0 ± 17.05 (≈ 359 µM)	~5	657.7 ± 87.51 (≈ 453 µM)
CCC(=O)OCCSC[C@H](N)C(=O)N[C@@H](CCN)C(=O)N[C@H](C(=O)N[C@@H](CCN)C(=O)N[C@H]1CCNC(=O)[C@H]([C@@H](C)O)NC(=O)[C@H](CCN)NC(=O)[C@H](CCN)NC(=O)[C@H](CSCCOC(=O)c2ccccc2)NC(=O)[C@@H](Cc2ccccc2)NC(=O)[C@H](CCN)NC1=O)[C@@H](C)O [Compound 44] (H-C(Ethyl(2-propionyloxy))[Dab]T[Dab][Dab][Dab][dF]C(Ethyl(2-OBz))[Dab][Dab]T; lactam 5-C)	0.5 (≈ 0.356 µM)	32 (≈ 22.8 µM)	16 (≈ 11.4 µM)	0.5 (≈ 0.356 µM)	0.5 (≈ 0.356 µM)	>32	32 (≈ 22.8 µM)	1	2	3	–	–	–	–
C[C@@H](O)[C@@H]1NC(=O)[C@H](CCN)NC(=O)[C@H](CCN)NC(=O)[C@H](CSCCOC(=O)c2ccccc2)NC(=O)[C@@H](Cc2ccccc2)NC(=O)[C@H](CCN)NC(=O)[C@@H](NC(=O)[C@H](CCN)NC(=O)[C@@H](NC(=O)[C@H](CCN)NC(=O)[C@@H](N)CSCCOC(=O)C(C)(C)C)[C@@H](C)O)CCNC1=O [Compound 46] (H-C(Ethyl(2-OPiv))[Dab]T[Dab][Dab][Dab][dF]C(Ethyl(2-OBz))[Dab][Dab]T; lactam 5-C)	2 to 4	16 (≈ 11.2 µM)	16 (≈ 11.2 µM)	2 (≈ 1.4 µM)	1 to 2	>32	–	1	3	4	–	–	–	–
CCC(=O)OCCSC[C@@H]1NC(=O)[C@@H](Cc2ccccc2)NC(=O)[C@H](CCN)NC(=O)[C@@H](NC(=O)[C@H](CCN)NC(=O)[C@@H](NC(=O)[C@H](CCN)NC(=O)[C@@H](N)CSCCOC(=O)c2ccccc2)[C@@H](C)O)CCNC(=O)[C@H]([C@@H](C)O)NC(=O)[C@H](CCN)NC(=O)[C@H](CCN)NC1=O [Compound 47] (H-C(Ethyl(2-OBz))[Dab]T[Dab][Dab][Dab][dF]C(Ethyl(2-propionyloxy))[Dab][Dab]T; lactam 5-C)	2 to 4	>32	>32	2 to 4	2 to 4	>32	>32	1	2	3	–	–	–	–
C[C@@H](O)[C@@H]1NC(=O)[C@H](CCN)NC(=O)[C@H](CCN)NC(=O)[C@H](CSCCOC(=O)C(C)(C)C)NC(=O)[C@@H](Cc2ccccc2)NC(=O)[C@H](CCN)NC(=O)[C@@H](NC(=O)[C@H](CCN)NC(=O)[C@@H](NC(=O)[C@H](CCN)NC(=O)[C@@H](N)CSCCOC(=O)c2ccccc2)[C@@H](C)O)CCNC1=O [Compound 48] (H-C(Ethyl(2-OBz))[Dab]T[Dab][Dab][Dab][dF]C(Ethyl(2-OPiv))[Dab][Dab]T; lactam 5-C)	2 (≈ 1.4 µM)	32 (≈ 22.3 µM)	2 (≈ 1.4 µM)	2 to 4	4 (≈ 2.79 µM)	>32	>32	1	2	4	–	–	–	–
CC(=O)N[C@@H](CSCCOC(=O)c1ccccc1)C(=O)N[C@@H](CCN)C(=O)N[C@H](C(=O)N[C@@H](CCN)C(=O)N[C@H]1CCNC(=O)[C@H]([C@@H](C)O)NC(=O)[C@H](CCN)NC(=O)[C@H](CCN)NC(=O)[C@H](CSCCOC(=O)c2ccccc2)NC(=O)[C@@H](Cc2ccccc2)NC(=O)[C@H](CCN)NC1=O)[C@@H](C)O [Compound 49] (Ac-C(Ethyl(2-OBz))[Dab]T[Dab][Dab][Dab][dF]C(Ethyl(2-OBz))[Dab][Dab]T; lactam 5-C)	0.5 (≈ 0.335 µM)	1 to 2	1 (≈ 0.669 µM)	0.5 (≈ 0.335 µM)	0.5 (≈ 0.335 µM)	>32	16 (≈ 10.7 µM)	3	3	4	–	–	–	–
CCCC(C)C(=O)OCCSC[C@@H](N)C(=O)N[C@H](C(=O)N[C@@H](CCN)C(=O)N[C@H]1CCNC(=O)[C@H]([C@@H](C)O)NC(=O)[C@H](CCN)NC(=O)[C@H](CCN)NC(=O)[C@H](CC(C)C)NC(=O)[C@@H](Cc2ccccc2)NC(=O)[C@H](CCN)NC1=O)[C@@H](C)O (stereo partly shown) [Compound 94] (H-[dC](X3)T[Dab][Dab][Dab][dF]L[Dab][Dab]T; lactam 4-C)	1 (≈ 0.827 µM)	4 (≈ 3.31 µM)	2 (≈ 1.65 µM)	1 (≈ 0.827 µM)	2 (≈ 1.65 µM)	>32	16 (≈ 13.2 µM)	1	2	3	–	–	–	–
Colistin [reference compound]	–	–	–	–	–	–	–	–	–	–	–	949.7 ± 75.35	–	2578 ± 11.41
